According to PMC5218480 (PLoS ONE, 2017):

System: MV-4-11 cells
Assay: Gene expression microarray analysis (Affymetrix PrimeView) and GSEA
Assay type: cell-based, human
Parameters: RFU PODN (11730768_x_at) / Fold change /veh PODN (11730768_x_at) / RFU LINC00158 (11744669_a_at) / Fold change /veh LINC00158 (11744669_a_at) / RFU DUSP10 (11751237_a_at) / Fold change /veh DUSP10 (11751237_a_at) / RFU ID3 (11757404_x_at) / Fold change /veh ID3 (11757404_x_at) / RFU PLEKHG5 (11737974_s_at) / Fold change /veh PLEKHG5 (11737974_s_at) / RFU LRRC4B (11730491_at) / Fold change /veh LRRC4B (11730491_at) / RFU GIMAP4 (11747438_a_at) / Fold change /veh GIMAP4 (11747438_a_at) / RFU KRT8 (11758183_x_at) / Fold change /veh KRT8 (11758183_x_at) / RFU CNN1 (11734310_a_at) / Fold change /veh CNN1 (11734310_a_at) / RFU VPS37D (11726825_at) / Fold change /veh VPS37D (11726825_at) / RFU C10orf10 (11716522_x_at) / Fold change /veh C10orf10 (11716522_x_at) / RFU KIR2DL2 /// KIR2DL4 /// KIR2DL5A /// KIR2DL5B /// KIR2DS1 /// KIR2DS2 /// KIR2DS3 /// KIR2DS4 /// KIR3DL3 /// KIR3DL3 /// KIR3DS1 (11738374_at) / Fold change /veh KIR2DL2 /// KIR2DL4 /// KIR2DL5A /// KIR2DL5B /// KIR2DS1 /// KIR2DS2 /// KIR2DS3 /// KIR2DS4 /// KIR3DL3 /// KIR3DL3 /// KIR3DS1 (11738374_at) / RFU C1QL1 (11718748_at) / Fold change /veh C1QL1 (11718748_at) / RFU TMPRSS4 (11747572_a_at) / Fold change /veh TMPRSS4 (11747572_a_at) / RFU HAMP (11756126_x_at) / Fold change /veh HAMP (11756126_x_at) / RFU RNFT2 (11725882_a_at) / Fold change /veh RNFT2 (11725882_a_at) / RFU NR4A2 (11747474_a_at) / Fold change /veh NR4A2 (11747474_a_at) / RFU ABCC12 (11746883_a_at) / Fold change /veh ABCC12 (11746883_a_at) / RFU TMEM136 (11760407_x_at) / Fold change /veh TMEM136 (11760407_x_at) / RFU CLDN22 /// WWC2 (11732394_at) / Fold change /veh CLDN22 /// WWC2 (11732394_at) / RFU HLA-DPB1 (11760878_x_at) / Fold change /veh HLA-DPB1 (11760878_x_at) / RFU SPINT1 (11716480_a_at) / Fold change /veh SPINT1 (11716480_a_at) / RFU GAP43 (11754022_s_at) / Fold change /veh GAP43 (11754022_s_at) / RFU A4GNT (11735810_at) / Fold change /veh A4GNT (11735810_at) / RFU PRB3 (11715151_x_at) / Fold change /veh PRB3 (11715151_x_at) / RFU TUBB4B (11761932_at) / Fold change /veh TUBB4B (11761932_at) / RFU CAPN14 (11732068_a_at) / Fold change /veh CAPN14 (11732068_a_at) / RFU TMCC2 (11721928_a_at) / Fold change /veh TMCC2 (11721928_a_at) / RFU IRGQ (11745062_a_at) / Fold change /veh IRGQ (11745062_a_at) / RFU FAM174B (11720279_a_at) / Fold change /veh FAM174B (11720279_a_at) / RFU TMPRSS4 (11748680_a_at) / Fold change /veh TMPRSS4 (11748680_a_at) / RFU FAM212B (11763350_a_at) / Fold change /veh FAM212B (11763350_a_at) / RFU PLEKHG5 (11743358_a_at) / Fold change /veh PLEKHG5 (11743358_a_at) / RFU ZSCAN30 (11745921_a_at) / Fold change /veh ZSCAN30 (11745921_a_at) / RFU CMKLR1 (11741424_a_at) / Fold change /veh CMKLR1 (11741424_a_at) / RFU LOC101060620 /// MAPK8IP1 (11723275_at) / Fold change /veh LOC101060620 /// MAPK8IP1 (11723275_at) / RFU SPTSSB (11747773_x_at) / Fold change /veh SPTSSB (11747773_x_at) / RFU PRSS12 (11739890_at) / Fold change /veh PRSS12 (11739890_at) / RFU BIN1 (11741810_x_at) / Fold change /veh BIN1 (11741810_x_at) / RFU WNT11 (11732464_a_at) / Fold change /veh WNT11 (11732464_a_at) / RFU C10orf10 (11716521_a_at) / Fold change /veh C10orf10 (11716521_a_at) / RFU C5orf56 (11738089_at) / Fold change /veh C5orf56 (11738089_at) / RFU CYB561 (11721691_x_at) / Fold change /veh CYB561 (11721691_x_at) / RFU ANKRD19P (11752326_a_at) / Fold change /veh ANKRD19P (11752326_a_at) / RFU OR2T12 /// OR2T33 /// OR2T8 (11738714_s_at) / Fold change /veh OR2T12 /// OR2T33 /// OR2T8 (11738714_s_at) / RFU VCAN (11748164_a_at) / Fold change /veh VCAN (11748164_a_at) / RFU JSRP1 (11732532_at) / Fold change /veh JSRP1 (11732532_at) / RFU KRTAP10-11 (11738290_x_at) / Fold change /veh KRTAP10-11 (11738290_x_at) / RFU MYO3A (11730013_a_at) / Fold change /veh MYO3A (11730013_a_at) / RFU EBF3 (11725865_a_at) / Fold change /veh EBF3 (11725865_a_at) / RFU CAMK2N1 (11719241_x_at) / Fold change /veh CAMK2N1 (11719241_x_at) / RFU C5orf56 (11738088_a_at) / Fold change /veh C5orf56 (11738088_a_at) / RFU OLFML3 (11715873_a_at) / Fold change /veh OLFML3 (11715873_a_at) / RFU LOC100653217 /// NTM (11731650_a_at) / Fold change /veh LOC100653217 /// NTM (11731650_a_at) / RFU MAPK11 (11762145_a_at) / Fold change /veh MAPK11 (11762145_a_at) / RFU FIZ1 (11724087_x_at) / Fold change /veh FIZ1 (11724087_x_at) / RFU OASL (11726364_x_at) / Fold change /veh OASL (11726364_x_at) / RFU SOX15 (11748057_x_at) / Fold change /veh SOX15 (11748057_x_at) / RFU CD79A (11719716_a_at) / Fold change /veh CD79A (11719716_a_at) / RFU HIST1H1D (11736915_at) / Fold change /veh HIST1H1D (11736915_at) / RFU CASKIN2 (11723855_a_at) / Fold change /veh CASKIN2 (11723855_a_at) / RFU LOC730098 (11760151_x_at) / Fold change /veh LOC730098 (11760151_x_at) / RFU OR4N2 (11742367_at) / Fold change /veh OR4N2 (11742367_at) / RFU PRRT2 (11749266_a_at) / Fold change /veh PRRT2 (11749266_a_at) / RFU SNX32 (11753110_a_at) / Fold change /veh SNX32 (11753110_a_at) / RFU CDHR5 (11726645_a_at) / Fold change /veh CDHR5 (11726645_a_at) / RFU RCAN1 (11760418_a_at) / Fold change /veh RCAN1 (11760418_a_at) / RFU FAM167A (11723789_a_at) / Fold change /veh FAM167A (11723789_a_at) / RFU FAM26E (11764081_at) / Fold change /veh FAM26E (11764081_at) / RFU ISYNA1 (11749810_s_at) / Fold change /veh ISYNA1 (11749810_s_at) / RFU ACY1 (11761880_at) / Fold change /veh ACY1 (11761880_at) / RFU 11764098_at / Fold change /veh 11764098_at / RFU SAMD14 (11745864_x_at) / Fold change /veh SAMD14 (11745864_x_at) / RFU NPB (11741838_a_at) / Fold change /veh NPB (11741838_a_at) / RFU TMPRSS6 (11731388_a_at) / Fold change /veh TMPRSS6 (11731388_a_at) / RFU KRTAP10-2 (11738614_at) / Fold change /veh KRTAP10-2 (11738614_at) / RFU ARHGAP8 /// PRR5-ARHGAP8 (11727945_x_at) / Fold change /veh ARHGAP8 /// PRR5-ARHGAP8 (11727945_x_at) / RFU KRTAP5-7 /// NADSYN1 (11734609_at) / Fold change /veh KRTAP5-7 /// NADSYN1 (11734609_at) / RFU RASL12 (11751679_a_at) / Fold change /veh RASL12 (11751679_a_at) / RFU CDKN2B (11736163_a_at) / Fold change /veh CDKN2B (11736163_a_at) / RFU PRF1 (11729649_at) / Fold change /veh PRF1 (11729649_at) / RFU, ZNF638 /// ZNF638-IT1 / Fold change vs veh, ZNF638 /// ZNF638-IT1 / RFU, PANK3 / Fold change vs veh, PANK3 / RFU, SH3YL1 / Fold change vs veh, SH3YL1 / RFU, ZEB2 / Fold change vs veh, ZEB2 / RFU, NRIP1 / Fold change vs veh, NRIP1 / RFU, PTTG1IP / Fold change vs veh, PTTG1IP / RFU, CAPN2 / Fold change vs veh, CAPN2 / RFU, MED14 / Fold change vs veh, MED14 / RFU, SNORA58 / Fold change vs veh, SNORA58 / RFU, C1orf63 / Fold change vs veh, C1orf63 / RFU, LRRFIP1 / Fold change vs veh, LRRFIP1 / RFU, NDUFAF7 / Fold change vs veh, NDUFAF7 / RFU, SLC12A2 / Fold change vs veh, SLC12A2 / RFU, IBTK / Fold change vs veh, IBTK / RFU, ESF1 / Fold change vs veh, ESF1 / Fold change vs veh, TMEM50B / RFU, TAOK1 / Fold change vs veh, TAOK1 / RFU, ACBD3 / Fold change vs veh, ACBD3 / RFU, TMA16 / Fold change vs veh, TMA16 / RFU, RWDD3 / Fold change vs veh, RWDD3 / RFU, BCAT1 / Fold change vs veh, BCAT1 / RFU, EDEM3 / Fold change vs veh, EDEM3 / RFU, TMEM33 / Fold change vs veh, TMEM33 / RFU, WDR75 / Fold change vs veh, WDR75 / RFU, AHCTF1 / Fold change vs veh, AHCTF1 / RFU, TFRC / Fold change vs veh, TFRC / RFU, ZDHHC17 / Fold change vs veh, ZDHHC17 / RFU, NOM1 / Fold change vs veh, NOM1 / RFU, ARL8B / Fold change vs veh, ARL8B / RFU, ZBTB11 / Fold change vs veh, ZBTB11 / RFU, TAMM41 / Fold change vs veh, TAMM41 / RFU, KIAA1704 /// LOC100996395 / Fold change vs veh, KIAA1704 /// LOC100996395 / RFU, ING1 / Fold change vs veh, ING1 / RFU, TRMT61B / Fold change vs veh, TRMT61B / RFU, FUBP3 / Fold change vs veh, FUBP3 / RFU, TP53 / Fold change vs veh, TP53 / RFU, TNKS2 / Fold change vs veh, TNKS2 / RFU, ZFP14 / Fold change vs veh, ZFP14 / RFU, ACTR2 / Fold change vs veh, ACTR2 / RFU, PPP3R1 / Fold change vs veh, PPP3R1 / RFU, PIK3R1 / Fold change vs veh, PIK3R1 / RFU, HNRNPA1 / Fold change vs veh, HNRNPA1 / RFU, RNF170 / Fold change vs veh, RNF170 / RFU, ZNF28 / Fold change vs veh, ZNF28 / RFU, RNGTT / Fold change vs veh, RNGTT / RFU, OGT / Fold change vs veh, OGT / RFU, BRD1 / Fold change vs veh, BRD1 / RFU, MARS / Fold change vs veh, MARS / RFU, ZNF655 / Fold change vs veh, ZNF655 / RFU, FAHD1 / Fold change vs veh, FAHD1 / RFU, BDP1 / Fold change vs veh, BDP1 / RFU, LRRCC1 / Fold change vs veh, LRRCC1 / RFU, ARID1A / Fold change vs veh, ARID1A / RFU, ZNF146 / Fold change vs veh, ZNF146 / RFU, ZNF330 / Fold change vs veh, ZNF330 / RFU, GPN3 / Fold change vs veh, GPN3 / RFU, C9orf123 / Fold change vs veh, C9orf123 / RFU, N4BP2L2 / Fold change vs veh, N4BP2L2 / RFU, ARFIP1 / Fold change vs veh, ARFIP1 / RFU, FAM179B / Fold change vs veh, FAM179B / RFU, BCL10 / Fold change vs veh, BCL10 / RFU, UHRF1BP1L / Fold change vs veh, UHRF1BP1L / RFU, BET1 / Fold change vs veh, BET1 / RFU, CNOT2 / Fold change vs veh, CNOT2 / RFU, ZNF268 / Fold change vs veh, ZNF268 / Fold change vs veh, ZNF507 / RFU, DGCR2 / Fold change vs veh, DGCR2 / RFU, WDSUB1 / Fold change vs veh, WDSUB1 / Fold change vs veh, HSP90B1 /// MIR3652 / RFU, ADSS / Fold change vs veh, ADSS / RFU, GK / Fold change vs veh, GK / RFU, ZNF148 / Fold change vs veh, ZNF148 / RFU, TAF9 / Fold change vs veh, TAF9 / RFU, SLC1A5 / Fold change vs veh, SLC1A5 / RFU, SLMO2 / Fold change vs veh, SLMO2 / RFU, ABCC4 / Fold change vs veh, ABCC4 / RFU, LOC101060439 /// RAP1B / Fold change vs veh, LOC101060439 /// RAP1B / RFU, RFX7 / Fold change vs veh, RFX7 / RFU, GTPBP10 / Fold change vs veh, GTPBP10 / RFU, CNEP1R1 / Fold change vs veh, CNEP1R1 / RFU, BIVM-ERCC5 /// ERCC5 / Fold change vs veh, BIVM-ERCC5 /// ERCC5 / RFU, ILF3 / Fold change vs veh, ILF3 / RFU 11762660_at / Fold change /veh 11762660_at / RFU VCAN (11757783_s_at) / Fold change /veh VCAN (11757783_s_at) / RFU DDX43 (11728927_at) / Fold change /veh DDX43 (11728927_at) / RFU KRT8 (11758188_x_at) / Fold change /veh KRT8 (11758188_x_at) / RFU NKD1 (11759106_at) / Fold change /veh NKD1 (11759106_at) / RFU SRD5A1 (11742802_a_at) / Fold change /veh SRD5A1 (11742802_a_at) / RFU TPSAB1 /// TPSB2 (11721975_s_at) / Fold change /veh TPSAB1 /// TPSB2 (11721975_s_at) / RFU GSTM3 (11746129_a_at) / Fold change /veh GSTM3 (11746129_a_at) / RFU IL23R (11737362_x_at) / Fold change /veh IL23R (11737362_x_at) / RFU TMEM51 (11727254_a_at) / Fold change /veh TMEM51 (11727254_a_at) / RFU PIWIL2 (11732686_x_at) / Fold change /veh PIWIL2 (11732686_x_at) / RFU ORM1 (11744905_x_at) / Fold change /veh ORM1 (11744905_x_at) / RFU CCDC152 (11743942_at) / Fold change /veh CCDC152 (11743942_at) / RFU ECM1 (11717891_a_at) / Fold change /veh ECM1 (11717891_a_at) / RFU IL23R (11748794_a_at) / Fold change /veh IL23R (11748794_a_at) / RFU TNFAIP8L3 (11732012_x_at) / Fold change /veh TNFAIP8L3 (11732012_x_at) / RFU MBOAT4 (11741988_at) / Fold change /veh MBOAT4 (11741988_at) / RFU 11764193_at / Fold change /veh 11764193_at / RFU TMEM53 (11763286_at) / Fold change /veh TMEM53 (11763286_at) / RFU MAGEB2 (11727129_at) / Fold change /veh MAGEB2 (11727129_at) / RFU TMEM200A (11744735_a_at) / Fold change /veh TMEM200A (11744735_a_at) / RFU CCDC152 (11751479_a_at) / Fold change /veh CCDC152 (11751479_a_at) / RFU FAM211A (11726209_a_at) / Fold change /veh FAM211A (11726209_a_at) / RFU RGS16 (11746705_a_at) / Fold change /veh RGS16 (11746705_a_at) / RFU VCAN (11755009_s_at) / Fold change /veh VCAN (11755009_s_at) / RFU RHOB (11743442_s_at) / Fold change /veh RHOB (11743442_s_at) / RFU RGS16 (11720943_a_at) / Fold change /veh RGS16 (11720943_a_at) / RFU RGS16 (11720944_at) / Fold change /veh RGS16 (11720944_at) / RFU, VPS4B / Fold change vs veh, VPS4B / RFU, CREB1 / Fold change vs veh, CREB1 / RFU, DNAJC13 / Fold change vs veh, DNAJC13 / RFU, GNAQ / Fold change vs veh, GNAQ / RFU, CDK5R1 / Fold change vs veh, CDK5R1 / RFU, ZRANB3 / Fold change vs veh, ZRANB3 / RFU, CUL4A / Fold change vs veh, CUL4A / RFU, CCNY / Fold change vs veh, CCNY / RFU, UFL1 / Fold change vs veh, UFL1 / RFU, COG3 / Fold change vs veh, COG3 / RFU, DIAPH2 / Fold change vs veh, DIAPH2 / RFU, SKA2 / Fold change vs veh, SKA2 / RFU, AFF3 / Fold change vs veh, AFF3 / RFU, LMF1 / Fold change vs veh, LMF1 / RFU, IPO11 / Fold change vs veh, IPO11 / RFU, DFFB / Fold change vs veh, DFFB / RFU, FOXP1 / Fold change vs veh, FOXP1 / RFU, CARD8 / Fold change vs veh, CARD8 / RFU, STRN3 / Fold change vs veh, STRN3 / RFU, ADK / Fold change vs veh, ADK / RFU, RASSF2 / Fold change vs veh, RASSF2 / RFU, WIPF1 / Fold change vs veh, WIPF1 / RFU, LARP1B / Fold change vs veh, LARP1B / RFU, RASA1 / Fold change vs veh, RASA1 / RFU, RB1 / Fold change vs veh, RB1 / RFU, PPFIA1 / Fold change vs veh, PPFIA1 / RFU, MAT2A / Fold change vs veh, MAT2A / RFU, CCT5 / Fold change vs veh, CCT5 / RFU, WDR92 / Fold change vs veh, WDR92 / RFU, CUX1 / Fold change vs veh, CUX1 / RFU, TTC7A / Fold change vs veh, TTC7A / RFU, TMEM135 / Fold change vs veh, TMEM135 / RFU, DEPTOR / Fold change vs veh, DEPTOR / RFU, CPM / Fold change vs veh, CPM / RFU, DNAJB6 / Fold change vs veh, DNAJB6 / RFU, CACNA2D3 / Fold change vs veh, CACNA2D3 / RFU, DTX4 / Fold change vs veh, DTX4 / RFU, TFCP2 / Fold change vs veh, TFCP2 / RFU, GMCL1 /// GMCL1P1 / Fold change vs veh, GMCL1 /// GMCL1P1 / RFU, AEBP2 / Fold change vs veh, AEBP2 / RFU, SNHG1 /// SNORD22 /// SNORD25 /// SNORD26 /// SNORD27 /// SNORD28 /// SNORD29 /// SNORD31 / Fold change vs veh, SNHG1 /// SNORD22 /// SNORD25 /// SNORD26 /// SNORD27 /// SNORD28 /// SNORD29 /// SNORD31 / Fold change (Aza/veh), C12orf56 (ProbeSet 11735607_a_at) / Fold change (ACY-1035/veh), C12orf56 (ProbeSet 11735607_a_at) / Fold change (Aza/veh), FGFR1OP (ProbeSet 11751329_s_at) / Fold change (ACY-1035/veh), FGFR1OP (ProbeSet 11751329_s_at) / Fold change (Aza/veh), VPS36 (ProbeSet 11739960_a_at) / Fold change (ACY-1035/veh), VPS36 (ProbeSet 11739960_a_at) / RFU SYPL1 (11715823_x_at) / Fold change /veh SYPL1 (11715823_x_at) / RFU IGFBP7 (11715501_s_at) / Fold change /veh IGFBP7 (11715501_s_at) / RFU REEP3 (11722064_at) / Fold change /veh REEP3 (11722064_at) / RFU IGLL1 (11728026_x_at) / Fold change /veh IGLL1 (11728026_x_at): dose or concentration left out as unconfirmed
Conditions: MV-4-11 cells, 48 hours

Compound: Nc1ccc(-c2cccs2)cc1NC(=O)c1ccc2c(c1)cc(C1CC1)n2CCN1CCOCC1 [ACY-1035]
- RFU KIR2DL2 /// KIR2DL4 /// KIR2DL5A /// KIR2DL5B /// KIR2DS1 /// KIR2DS2 /// KIR2DS3 /// KIR2DS4 /// KIR3DL3 /// KIR3DL3 /// KIR3DS1 (11738374_at): 11.07 RFU
